Laboratory results published in patent publication US9889125B2 (TAKEDA PHARMACEUTICALS U.S.A., INC., priority 2011, dated 2018).
Structures can show the parent of a compound that is named as a salt.

What was measured:
[1] = tested on: platelet aggregation with ADP; test: Platelet function test: Aggregometry with adenosine diphosphate (ADP), maximum platelet aggregation (MPA); assay type: in vivo, human; settings: for MPA with 5 μM ADP, Mean (SD) / MPA with 20 μM ADP, Mean (SD): 9 days, 24 Hours Post Day 9 Dose
Source text: (§1) ANOVA models with sequence, subject within sequence, period and regimen were fitted to the pharmacodynamic parameters.

[2] = tested on: P2Y12 platelet reactivity; test: Platelet function test: VerifyNow, P2Y12 platelet reactivity unit (PRU); assay type: in vivo, human; settings: 9 days, 24 Hours Post Day 9 Dose
Source text: as §1

[3] = target: T1, CYP2C19 (Homo sapiens, UniProt P33261); test: CYP2C19 inhibition by PPIs
T1 construct: The subject was a CYP2C19 extensive metabolizer (wt/wt); from tissue; host or cells: Liver of healthy study subjects (in vivo), CYP2C19 wt/wt genotype

[4] = tested on: platelet function (Vasodilator-stimulated phosphoprotein, VASP); test: Platelet function test: Vasodilator-stimulated phosphoprotein (VASP), platelet reactivity index (PRI); assay type: in vivo, human; settings: for Difference in the LS-Means of PRI (with PPI vs without PPI): 9 days, 24 hours post Day 9 dose
Source text: as §1

[5] = PPI 80 mg with clopidogrel 300-mg loading dose and 75 mg/day maintenance dose; healthy subjects; cited from earlier work
[6] = PPI group dexlansoprazole 60 mg: clopidogrel 75 mg QD alone or clopidogrel + PPI
[7] = PPI group esomeprazole 40 mg: clopidogrel 75 mg QD alone or clopidogrel + PPI
[8] = PPI group lansoprazole 30 mg: clopidogrel 75 mg QD alone or clopidogrel + PPI
[9] = PPI group omeprazole 80 mg: clopidogrel 75 mg QD alone or clopidogrel + PPI
[10] = clopidogrel with dexlansoprazole 60 mg vs clopidogrel alone
[11] = clopidogrel with lansoprazole 30 mg vs clopidogrel alone

T1 sequence (P33261 whole entry): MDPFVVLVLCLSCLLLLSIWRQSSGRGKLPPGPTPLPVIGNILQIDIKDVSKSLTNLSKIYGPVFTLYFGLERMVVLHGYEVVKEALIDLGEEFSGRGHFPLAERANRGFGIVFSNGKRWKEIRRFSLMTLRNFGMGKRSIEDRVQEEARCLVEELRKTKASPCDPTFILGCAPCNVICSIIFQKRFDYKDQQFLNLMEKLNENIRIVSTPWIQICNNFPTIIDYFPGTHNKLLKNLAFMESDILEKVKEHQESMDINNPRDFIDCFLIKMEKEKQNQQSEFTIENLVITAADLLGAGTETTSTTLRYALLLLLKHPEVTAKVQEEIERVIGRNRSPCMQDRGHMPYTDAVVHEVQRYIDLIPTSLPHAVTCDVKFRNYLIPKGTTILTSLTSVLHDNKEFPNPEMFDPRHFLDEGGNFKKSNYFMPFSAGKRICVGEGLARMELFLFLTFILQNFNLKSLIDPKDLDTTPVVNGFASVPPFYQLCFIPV

Compound | MPA with 5 μM ADP, Mean (SD) [1, 6] | MPA with 20 μM ADP, Mean (SD) [1, 6] | MPA with 5 μM ADP, Mean (SD) [1, 7] | MPA with 20 μM ADP, Mean (SD) [1, 7] | MPA with 5 μM ADP, Mean (SD) [1, 8] | MPA with 20 μM ADP, Mean (SD) [1, 8] | MPA with 5 μM ADP, Mean (SD) [1, 9] | MPA with 20 μM ADP, Mean (SD) [1, 9] | PRU, Mean (SD) [2, 6] | PRU, Mean (SD) [2, 7] | PRU, Mean (SD) [2, 8] | PRU, Mean (SD) [2, 9] | CYP2C19 inhibition (strength of inhibitor) [3] | also measured
COC(=O)[C@H](c1ccccc1Cl)N1CCc2sccc2C1 [Clopidogrel, methyl (+)-(S)-α-(2-chlorophenyl)-6,7-dihydrothieno[3,2-c]pyridine-5 (4H)-acetate sulfate (1:1)] | 34.6 (14.23) % | 43.1 (13.24) % | 29.3 (10.41) % | 39.3 (13.22) % | 28.1 (6.76) % | 36.7 (9.11) % | 34.2 (12.32) % | 43.5 (14.00) % | 124.2 (79.10) % | 121.1 (50.64) % | 114.9 (56.44) % | 133.0 (67.62) % |  | 
Cc1c(OCC(F)(F)F)ccnc1C[S@@+]([O-])c1nc2ccccc2[nH]1 [Dexlansoprazole] | 36.2 (16.87) % | 46.3 (16.93) % |  |  |  |  |  |  | 146.7 (84.45) % |  |  |  | weak CYP2C19 inhibitors | difference in MPA compared with clopidogrel alone, statistical significance ([1]; clopidogrel with dexlansoprazole 60 mg, either MPA (5 and 20 μM ADP)): not statistically significant; Difference in the LS-Means of PRI (with PPI vs without PPI) ([4]; clopidogrel 75 mg QD with vs without dexlansoprazole 60 mg QD): 2.0474; effect on clopidogrel PD in terms of PRI (90% CI of LS-Mean difference against 15% boundary) [4, 10]: equivalence in PD was demonstrated; increase in mean PRI [4, 10]: 2.0%
COc1ccc2nc([S@@+]([O-])Cc3ncc(C)c(OC)c3C)[nH]c2c1 [Esomeprazole] |  |  | 38.2 (17.77) % | 47.9 (15.77) % |  |  |  |  |  | 177.6 (55.37) % |  |  | potent CYP2C19 inhibitors | Difference in the LS-Means of PRI (with PPI vs without PPI) ([4]; clopidogrel 75 mg QD with vs without esomeprazole 40 mg QD): 11.4437; effect on clopidogrel PD in terms of PRI (90% CI of LS-Mean difference against 15% boundary) ([4]; clopidogrel with esomeprazole 40 mg vs clopidogrel alone): very similar to omeprazole 80 mg
Cc1c(OCC(F)(F)F)ccnc1C[S+]([O-])c1nc2ccccc2[nH]1 (stereo not drawn) [Lansoprazole] |  |  |  |  | 30.8 (9.35) % | 41.6 (12.65) % |  |  |  |  | 131.8 (71.27) % |  | weak CYP2C19 inhibitors | Difference in the LS-Means of PRI (with PPI vs without PPI) ([4]; clopidogrel 75 mg QD with vs without lansoprazole 30 mg QD): 4.1016; effect on clopidogrel PD in terms of PRI (90% CI of LS-Mean difference against 15% boundary) [4, 11]: equivalence in PD was demonstrated; increase in mean PRI [4, 11]: 4.1%
COc1ccc2[nH]c([S+]([O-])Cc3ncc(C)c(OC)c3C)nc2c1 (stereo not drawn) [Omeprazole] |  |  |  |  |  |  | 42.5 (14.74) % | 53.5 (13.75) % |  |  |  | 201.5 (59.65) % | potent CYP2C19 inhibitors | metabolic DDI with clopidogrel [5]: a metabolic DDI was found to exist; Difference in the LS-Means of PRI (with PPI vs without PPI) ([4]; clopidogrel 75 mg QD with vs without omeprazole 80 mg QD): 11.0407
